Columns and labels:
Assay in all cases: competitive isoTOP-ABPP
Assay type in all cases: binding
[1] = biological target: T1, RINT1 RAD50-interacting protein 1 (Homo sapiens, UniProt Q6NUQ1); settings: for isoTOP-ABPP reactivity ratio at lysine Q6NUQ1_K771 / isoTOP-ABPP ratio (R) at liganded lysine Q6NUQ1_K771: 50 uM, in vitro; for isoTOP-ABPP reactivity ratio at lysine Q6NUQ1_K771: 231 sol; for isoTOP-ABPP ratio (R) at liganded lysine Q6NUQ1_K771: sol, 231; for isoTOP-ABPP ratio, lysine Q6NUQ1_K771: 50 uM_231_sol_in vitro
T1 construct: isoTOP-ABPP experiments performed in cell lysates (in vitro); endogenous in cells; host or cells: soluble proteome of human cancer cell lines (MDA-MB-231; Ramos and Jurkat also prepared)
In short: (§1)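 Fragments at 50 μM (activated esters) or 100 μM (guanidinylating agents) were incubated with 0.5 ml lysate before probe labeling. After 0.1 mM STP-alkyne for 1 h, samples were clicked to isotopically distinct TEV tags, and R taken as DMSO-over-compound MS1 peak-area ratio.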

[2] = biological target: T2, RPL10 60S ribosomal protein L10 (Homo sapiens, UniProt P27635); settings: for isoTOP-ABPP ratio, lysine P27635_K121: 50 uM_231_sol_in vitro
T2 construct: isoTOP-ABPP experiments performed in cell lysates (in vitro); endogenous in cells; host or cells: soluble proteome of human cancer cell lines (MDA-MB-231; Ramos and Jurkat also prepared)
In short: as §1

LMNA Prelamin-A/C = biological target: T3, LMNA Prelamin-A/C (Homo sapiens, UniProt P02545); settings: for isoTOP-ABPP reactivity ratio at lysine P02545_K135 / isoTOP-ABPP ratio (R) at liganded lysine P02545_K135: 50 uM, in vitro; for isoTOP-ABPP reactivity ratio at lysine P02545_K135: 231 sol; for isoTOP-ABPP ratio (R) at liganded lysine P02545_K135: sol, 231; for isoTOP-ABPP ratio, lysine P02545_K135: 50 uM_231_sol_in vitro
T3 construct: isoTOP-ABPP experiments performed in cell lysates (in vitro); endogenous in cells; host or cells: MDA-MB-231 soluble lysate
T3 sequence (P02545 1-664): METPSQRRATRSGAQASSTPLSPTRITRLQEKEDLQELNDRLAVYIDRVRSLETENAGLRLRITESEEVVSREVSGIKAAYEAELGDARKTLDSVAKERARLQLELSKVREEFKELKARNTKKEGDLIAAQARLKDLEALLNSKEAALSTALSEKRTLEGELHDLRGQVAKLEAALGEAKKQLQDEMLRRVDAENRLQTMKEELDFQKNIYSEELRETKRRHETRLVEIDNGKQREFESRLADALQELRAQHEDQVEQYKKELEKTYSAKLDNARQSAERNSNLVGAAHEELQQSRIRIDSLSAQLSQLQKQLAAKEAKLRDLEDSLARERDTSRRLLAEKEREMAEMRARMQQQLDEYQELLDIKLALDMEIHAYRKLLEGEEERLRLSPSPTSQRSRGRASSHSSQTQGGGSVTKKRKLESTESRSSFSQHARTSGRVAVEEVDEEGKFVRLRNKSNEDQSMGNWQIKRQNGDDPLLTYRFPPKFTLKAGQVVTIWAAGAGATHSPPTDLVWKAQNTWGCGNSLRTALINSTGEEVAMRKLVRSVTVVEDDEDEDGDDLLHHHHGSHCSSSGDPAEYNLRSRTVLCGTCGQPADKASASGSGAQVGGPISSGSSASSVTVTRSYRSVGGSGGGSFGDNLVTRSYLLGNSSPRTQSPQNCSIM
In short: as §1

[3] = biological target: T4, WARS Tryptophan--tRNA ligase, cytoplasmic (Homo sapiens, UniProt P23381); settings: for isoTOP-ABPP reactivity ratio at lysine P23381_K256 / isoTOP-ABPP ratio (R) at liganded lysine P23381_K256: 50 uM, in vitro; for isoTOP-ABPP reactivity ratio at lysine P23381_K256: 231 sol; for isoTOP-ABPP ratio (R) at liganded lysine P23381_K256: sol, 231
T4 construct: isoTOP-ABPP experiments performed in cell lysates (in vitro); endogenous in cells; host or cells: soluble proteome of human cancer cell lines (MDA-MB-231; Ramos and Jurkat also prepared)
T4 sequence (P23381 1-471): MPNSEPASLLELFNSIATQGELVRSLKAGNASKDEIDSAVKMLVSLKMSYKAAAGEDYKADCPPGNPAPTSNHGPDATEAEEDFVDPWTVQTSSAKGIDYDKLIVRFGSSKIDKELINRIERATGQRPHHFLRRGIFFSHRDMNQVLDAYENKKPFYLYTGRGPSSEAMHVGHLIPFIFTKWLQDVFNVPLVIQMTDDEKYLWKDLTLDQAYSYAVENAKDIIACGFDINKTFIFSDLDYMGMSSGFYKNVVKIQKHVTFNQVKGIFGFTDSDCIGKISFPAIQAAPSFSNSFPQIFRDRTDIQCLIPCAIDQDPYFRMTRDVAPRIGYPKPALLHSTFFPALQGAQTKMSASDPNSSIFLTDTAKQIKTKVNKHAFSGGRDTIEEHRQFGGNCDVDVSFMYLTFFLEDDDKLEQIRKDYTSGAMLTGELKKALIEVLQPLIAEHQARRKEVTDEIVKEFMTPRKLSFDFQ
In short: as §1

[4] = biological target: T5, MRPS24 28S ribosomal protein S24, mitochondrial (Homo sapiens, UniProt Q96EL2); settings: for isoTOP-ABPP reactivity ratio at lysine Q96EL2_K94: 231 sol; for isoTOP-ABPP ratio, lysine Q96EL2_K94: 50 uM_231_sol_in vitro
T5 construct: isoTOP-ABPP experiments performed in cell lysates (in vitro); endogenous in cells; host or cells: soluble proteome of human cancer cell lines (MDA-MB-231; Ramos and Jurkat also prepared)
In short: as §1

T1 sequence (Q6NUQ1 whole entry): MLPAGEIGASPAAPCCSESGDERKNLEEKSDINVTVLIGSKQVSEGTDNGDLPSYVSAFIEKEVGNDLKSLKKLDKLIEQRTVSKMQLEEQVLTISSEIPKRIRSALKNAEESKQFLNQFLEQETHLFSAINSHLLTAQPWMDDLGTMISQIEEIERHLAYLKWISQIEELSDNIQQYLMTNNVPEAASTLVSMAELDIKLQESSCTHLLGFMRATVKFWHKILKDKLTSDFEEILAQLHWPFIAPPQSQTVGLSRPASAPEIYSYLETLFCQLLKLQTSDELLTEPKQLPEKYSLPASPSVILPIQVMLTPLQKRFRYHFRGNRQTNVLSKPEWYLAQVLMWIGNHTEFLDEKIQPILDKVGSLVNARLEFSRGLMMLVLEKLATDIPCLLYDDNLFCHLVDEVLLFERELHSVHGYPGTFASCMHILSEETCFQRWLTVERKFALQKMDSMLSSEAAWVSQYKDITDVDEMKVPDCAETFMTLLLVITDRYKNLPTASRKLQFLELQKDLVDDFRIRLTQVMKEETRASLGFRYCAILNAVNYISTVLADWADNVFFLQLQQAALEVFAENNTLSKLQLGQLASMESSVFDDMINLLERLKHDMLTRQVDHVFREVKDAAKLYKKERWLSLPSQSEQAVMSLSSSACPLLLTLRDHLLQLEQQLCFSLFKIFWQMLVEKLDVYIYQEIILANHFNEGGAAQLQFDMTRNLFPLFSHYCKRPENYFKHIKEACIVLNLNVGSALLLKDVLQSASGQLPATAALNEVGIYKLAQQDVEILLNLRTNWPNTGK

Compound	isoTOP-ABPP reactivity ratio at lysine Q6NUQ1_K771 [1]	isoTOP-ABPP reactivity ratio at lysine P02545_K135 (LMNA Prelamin-A/C)	isoTOP-ABPP reactivity ratio at lysine P23381_K256 [3]	isoTOP-ABPP ratio, lysine Q6NUQ1_K771 [1]	isoTOP-ABPP ratio, lysine P27635_K121 [2]	isoTOP-ABPP ratio, lysine P02545_K135 (LMNA Prelamin-A/C)	further results
O=C(Oc1ccc([N+](=O)[O-])cc1[N+](=O)[O-])C(c1ccccc1)c1ccccc1 [fragment 30, 2,4-Dinitrophenyl 2,2-diphenylacetate]	1.7	20.0	1.1	–	–	–	isoTOP-ABPP reactivity ratio at lysine P27635_K121 ([2]; 50 uM, 231 sol, in vitro): 1.1
O=C(Oc1ccc([N+](=O)[O-])cc1[N+](=O)[O-])c1cc(C(F)(F)F)cc(C(F)(F)F)c1 [fragment 31, 2,4-Dinitrophenyl 3,5-bis(trifluoromethyl)benzoate]	20.0	1.3	0.9	–	–	–	isoTOP-ABPP reactivity ratio at lysine Q96EL2_K94 ([4]; 50 uM, in vitro): 1.6
COc1cc(CCC(=O)Oc2ccc([N+](=O)[O-])cc2[N+](=O)[O-])cc(OC)c1OC [fragment 33, 2,4-Dinitrophenyl 3-(3,4,5-trimethoxyphenyl)propanoate]	1.0	0.7	0.8	–	–	–	isoTOP-ABPP reactivity ratio at lysine Q96EL2_K94 ([4]; 50 uM, in vitro): 1.4
O=C(Oc1ccc([N+](=O)[O-])cc1[N+](=O)[O-])c1ccccc1Nc1cccc(C(F)(F)F)c1 [fragment 40, 2,4-Dinitrophenyl 2-((3-(trifluoromethyl)phenyl)amino)benzoate]	–	–	–	–	–	–	isoTOP-ABPP ratio (R) at liganded lysine Q6NUQ1_K771 [1]: 1.1; isoTOP-ABPP ratio (R) at liganded lysine P02545_K135 (LMNA Prelamin-A/C): 1.2; isoTOP-ABPP ratio (R) at liganded lysine P23381_K256 [3]: 1.1
O=C(Oc1ccc([N+](=O)[O-])cc1[N+](=O)[O-])C(c1ccccc1)(c1ccccc1)c1ccccc1 [fragment 42, 2,4-Dinitrophenyl 2,2,2-triphenylacetate]	–	–	–	–	–	–	isoTOP-ABPP ratio (R) at liganded lysine Q6NUQ1_K771 [1]: 1.1; isoTOP-ABPP ratio (R) at liganded lysine Q96EL2_K94 ([4]; 50 uM, in vitro, sol, 231): 1.5; isoTOP-ABPP ratio (R) at liganded lysine P02545_K135 (LMNA Prelamin-A/C): 1.0; isoTOP-ABPP ratio (R) at liganded lysine P23381_K256 [3]: 1.1
O=C(CCc1ccc2c(c1)OCO2)Oc1ccc([N+](=O)[O-])cc1[N+](=O)[O-] [fragment 45, 2,4-Dinitrophenyl 3-(benzo[d][1,3]dioxol-5-yl)propanoate]	–	–	–	1.0	1.8	0.9	isoTOP-ABPP ratio, lysine P23381_K256 ([3]; 50 uM_231_sol_in vitro): 1.1
O=C(Oc1c(F)c(F)c(C(F)(F)F)c(F)c1F)c1cc(C(F)(F)F)cc(C(F)(F)F)c1 [fragment 47, 2,3,5,6-Tetrafluoro-4-(trifluoromethyl)phenyl 3,5-bis(trifluoromethyl)benzoate]	–	–	–	1.2	1.1	1.2	–
O=C(Oc1c(F)c(F)cc(F)c1F)c1cc(C(F)(F)F)cc(C(F)(F)F)c1 [fragment 48, 2,3,5,6-Tetrafluorophenyl 3,5-bis(trifluoromethyl)benzoate]	–	–	–	4.8	0.8	1.0	isoTOP-ABPP ratio, lysine Q96EL2_K94 [4]: 1.0
NC(=O)c1cc(C(F)(F)F)cc(C(F)(F)F)c1 [fragment 51, reference compound]	–	–	–	0.9	–	1.0	isoTOP-ABPP ratio, lysine Q96EL2_K94 [4]: 0.9
